{"source": "patent US8303960B2", "about": "“Radiolabeled affibody molecules” (The United States of America, as represented by the …, priority 2007, dated 2012)", "assay_type_in_all_cases": "in vivo, mice", "key": {"HER2 [1]": {"system": "HER2", "assay": "PET imaging of ^18F-ZHER2-affibody tumor uptake before and after 17-DMAG", "details": "84 h post-treatment; BT-474 and MCF7/clone 18 tumors", "description": "Mice bearing BT-474 or MCF7/clone18 subcutaneous tumors are treated with two doses (30-50 mg/kg, 12 or 24 h apart) of 17-DMAG. Animals (n=4-6) are scanned before, 36 h, and 84 h after the treatment. Immediately after the last scan, the animals are euthanized, and the tumors are frozen for further analysis. HER2 expression in the tumors is then measured ex-vivo by western blot (Table 2) and ELISA (Table 3). In animals treated with 17-DMAG, the accumulation of radioactivity estimated by PET imaging decreases 50-70% at 84 h post-treatment (FIGS. 11 and 12). This change is confirmed by the biodistribution studies, see, e.g., FIG. 13."}, "HER2 [2]": {"system": "HER2", "assay": "Ex-vivo ELISA of tumor tissue lysates after 17-DMAG treatment", "description": "(§1) Mice bearing BT-474 or MCF7/clone18 subcutaneous tumors are treated with two doses (30-50 mg/kg, 12 or 24 h apart) of 17-DMAG. Animals (n=4-6) are scanned before, 36 h, and 84 h after the treatment. Immediately after the last scan, the animals are euthanized, and the tumors are frozen for further analysis. HER2 expression in the tumors is then measured ex-vivo by western blot (Table 2) and ELISA (Table 3)."}, "HER2 [3]": {"system": "HER2", "assay": "Ex-vivo western blot of tumor tissue lysates after 17-DMAG treatment", "details": "for HER2 western blot signal, fraction of control lane (in parentheses): lane (3) relative to lane (1); for HER2 western blot, mean intensity of the signal: after 17-DMAG", "description": "as §1"}}, "note": "Several values for one entry are separate records, joined by “and”; a condition that tells them apart may be missing. Equal values may be shown once."}
{"smiles": "CO[C@H]1/C=C\\C=C(/C)C(=O)NC2=CC(=O)C(NCCN(C)C)=C(C[C@@H](C)C[C@H](OC)[C@H](O)[C@@H](C)/C=C(\\C)[C@@H]1OC(N)=O)C2=O", "note": "[17-DMAG, 17-dimethylaminoethylamino-17-demethoxygeldanamycin]", "values": [{"measurement": "decrease of accumulation of radioactivity estimated by PET imaging", "setting": "HER2 [1]", "result": "50-70%"}, {"measurement": "HER2 in tissue lysate (ELISA)", "setting": "HER2 [2]; BT-474 tumor after 17-DMAG, Trial 1", "result": 541.41, "unit": "fmol/mg protein"}, {"measurement": "HER2 in tissue lysate (ELISA)", "setting": "HER2 [2]; BT-474 tumor after 17-DMAG, Trial 2", "result": 504.86, "unit": "fmol/mg protein"}, {"measurement": "HER2 (ELISA), fraction of untreated control (in parentheses)", "setting": "HER2 [2]; BT-474 tumor, Trial 1", "result": "(0.35)"}, {"measurement": "HER2 (ELISA), fraction of untreated control (in parentheses)", "setting": "HER2 [2]; BT-474 tumor, Trial 2", "result": "(0.30)"}, {"measurement": "HER2 in tissue lysate (ELISA)", "setting": "HER2 [2]; MCF7/clone 18 tumor after 17-DMAG, Trial 1", "result": 602.19, "unit": "fmol/mg protein"}, {"measurement": "HER2 in tissue lysate (ELISA)", "setting": "HER2 [2]; MCF7/clone 18 tumor after 17-DMAG, Trial 2", "result": 516.77, "unit": "fmol/mg protein"}, {"measurement": "HER2 (ELISA), fraction of untreated control (in parentheses)", "setting": "HER2 [2]; MCF7/clone 18 tumor, Trial 1", "result": "(0.43)"}, {"measurement": "HER2 (ELISA), fraction of untreated control (in parentheses)", "setting": "HER2 [2]; MCF7/clone 18 tumor, Trial 2", "result": "(0.36)"}, {"measurement": "HER2 western blot signal, fraction of control lane (in parentheses)", "setting": "HER2 [3]; dry transfer", "result": "(0.36)"}, {"measurement": "HER2 western blot, mean intensity of the signal", "setting": "HER2 [3]; dry transfer, lane (3)", "result": 43.24, "unit": "DU"}, {"measurement": "HER2 western blot, mean intensity of the signal", "setting": "HER2 [3]; dry transfer, lanes (5) and (6)", "result": "99.85 DU and 88.68 DU"}, {"measurement": "decrease of HER2 expression", "setting": "HER2 [3]; ex vivo analysis of tumor samples by western blots and ELISA", "result": "50-70%"}, {"measurement": "HER2 western blot signal, fraction of control lane (in parentheses)", "setting": "HER2 [3]; wet transfer", "result": "(0.34)"}, {"measurement": "HER2 western blot, mean intensity of the signal", "setting": "HER2 [3]; wet transfer, lane (3)", "result": 83.08, "unit": "DU"}, {"measurement": "HER2 western blot, mean intensity of the signal", "setting": "HER2 [3]; wet transfer, lanes (5) and (6)", "result": "187.69 DU and 156.39 DU"}]}
